This experiment has as its target T1, 15N-labeled carbohydrate recognition domain (CRD) of DC-SIGN (Homo sapiens, UniProt Q9NNX6).
T1 sequence (Q9NNX6 250-404 limits assumed): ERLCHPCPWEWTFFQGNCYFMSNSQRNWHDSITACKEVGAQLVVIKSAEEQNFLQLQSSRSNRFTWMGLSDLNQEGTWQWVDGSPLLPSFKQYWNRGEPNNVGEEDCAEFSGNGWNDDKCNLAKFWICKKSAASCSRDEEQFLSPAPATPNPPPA
Description: 1H-15N HSQC titration, chemical shift perturbation. Type of experiment: binding.

Broadly, the Kd is the free concentration of one partner at which half of the binding sites on the other are occupied at equilibrium, for simple one-to-one binding. Consider `CC(=O)N[C@H]1[C@H](O[C@H]2[C@H](O[C@@H]3O[C@@H](C)[C@@H](O)[C@@H](O)[C@@H]3O)[C@@H](NC(C)=O)[C@H](OCCCCCN)O[C@@H]2CO)O[C@H](CO)[C@H](O)[C@@H]1O` [compound 12, LDN-F], for which the Kd is 1500 ± 400 µM.
